Measured values published in article PMC9695592, “Phenotypic Evaluation of Nucleoside Analogues against Trypanosoma cruzi Infection: In Vitro and In Vivo Approaches” (Molecules, 2022).
Where two headings read alike, the source gives them in different places.

Assays:
[1] = test system: promastigotes of LmexCas9; experiment: Resazurin-based assay on LmexCas9 promastigotes; type: cell-based, Leishmania mexicana
Protocol: (§1) Bloodstream trypomastigotes of the Y strain (DTU II) were obtained by cardiac puncture of infected Swiss Webster mice on the parasitemia peak to perform drug sensitivity assays. Trypomastigote forms of the Tulahuen-β gal strain were collected from the supernatant of previously infected L929 cell cultures (host/parasite cell ratio 10:1). The intracellular forms T. cruzi were studied by the infection of L929 and H9C2 (2D and 3D) cell cultures infected for 48 and 24 h with trypomastigotes of Tulahuen-β gal and Y strains, respectively. The Leishmania mexicana-Cas9 T7 strain (LmexCas9) was derived from L. mexicana WT promastigotes by expression of the Streptococcus pyogenes Cas9 nuclease gene ‘Cas9′ and maintained on 32 μg/mL hygromycin [51]. This strain and the derived strains Cas9^ΔNT1 and Cas9^ΔNT1+TcrNT2 were cultured in HOMEM medium supplemented with 10% of FBS and 1% Penicillin-Streptomycin antibiotic in unvented flasks at 25 °C [52]. The Cas9^ΔNT1 strain is identical to Cas9 except that the LmexNT1.1/NT1.2 locus encoding the L. mexicana adenosine/ pyrimidine transporters was excised using Cas9 [17, 40]. Cas9^ΔNT1+TcrNT2 is the further modification of that strain by the expression of the T. cruzi nucleoside transporter 2 (TcrNT2) gene in it, using the vector pNUS-HcN [53]. Appropriate antibiotics were added for the selection and maintenance of transfectants.
(§2) The EC50 values for nucleoside analogues against Leishmania mexicana promastigotes of the Cas9, Cas9^ΔNT1 and Cas9^ΔNT1+TcrNT2 strains used a resazurin-based assay, as described. Briefly, the assays were performed in standard HOMEM medium and culture conditions, in white opaque 96-well plates. For each test compound (stored as a 40 mM stock solution in 100% DMSO at −20 °C), a doubling dilution was performed over 2 rows of the plate, keeping the last well free as no-drug control with HOMEM only (23 doubling dilutions; highest concentration 100 µM). To each well, 100 µL of HOMEM containing 2 × 10^5 cells of the appropriate L. mexicana line was added, and the plates incubated for 72 h at 25 °C, followed by the addition of 20 µL of resazurin solution and further incubation for 48 h. Fluorescence was read on a FLUOstar OPTIMA plate reader (BMG Labtech, Germany), at an excitation wavelength of 544 nm and an emission wavelength of 620 nm. The EC50 values were determined by the GraphPad Prism 8.0 software using an equation for a sigmoid curve with variable slope. Pentamidine was used as positive control, and every experiment was independently performed at least 3 times independently.

[2] = test system: promastigotes of Cas9^ΔNT1; experiment: Resazurin-based assay on Cas9^ΔNT1 promastigotes; type: cell-based, Leishmania mexicana
Protocol: as §1, §2

H9C2 2D cultures = experiment: Cardiotoxicity on H9C2 monolayers (2D), PrestoBlue; type: cell-based; settings: Rattus norvegicus
Description: (§3) L929 cell lines were used to evaluate the effect of the nucleoside derivatives on the cellular viability of mammalian host cells and to assess their activity against intracellular forms of T. cruzi (Tulahuen strain expressing E. coli β-galactosidase gene, DTU VI) as reported. 2D and 3D culture systems of rat cardiomyoblast cell lines (H9C2(2-1)) were used to evaluate cardiotoxicity and to test the derivatives’ activity on intracellular forms (Y strain, DTU II). In all assays, the cell cultures were maintained at 37 °C under an atmosphere of 5% CO2.
L929 cells seeded in sterile 96-well microtiter plates were exposed or not to increasing concentrations (up to 200 µM) of the compounds. […] Cellular viability was assessed through AlamarBlue® (resazurin sodium salt) colorimetric assay, and the results were expressed as % reduction in cell growth/viability compared to untreated control, and an IC50 value determined. For the assays using H9C2 cultures, 25 × 10^3 cells/well were seeded in a 96-well microtiter plates (flat and U bottoms, precoated with agarose 1% for preparing 2- and 3D matrices, respectively) and maintained at 37 °C [48, 54].
[…] Cell viability was measured using the PrestoBlue® (PB) colorimetric assay, the results evaluated as % reduction in cell growth/viability compared to untreated control, and an IC50 value determined. The data results from at least two independent experiments done in at least duplicates.

[3] = test system: intracellular forms of T. cruzi (Tulahuen strain); experiment: Activity against intracellular forms of T. cruzi (Tulahuen-β gal strain) in L929 cultures, CPRG readout; type: cell-based; settings: Trypanosoma cruzi, 168 h; Tulahuen strain in L929, seven days of compound incubation; 95% confidence interval in brackets
Description: as §3, §1
In an initial step, nucleoside derivatives were assayed against intracellular forms of Tulahuen-β gal strain in L929 cell lines. Assays were performed in sterile 96-well microtiter plates with 4 × 10^3 cells/well and 4 × 10^4 parasites/well (host/parasite cell ratio 1:10). After the establishment of infection (48 h), increasing concentrations (up to 30 µM) of the compounds were added, and the cultures maintained at 37 °C for seven days. Untreated-infected controls represented 100% growth. Parasite burden was analyzed by adding the substrate CPRG (chlorophenol red ß-D-galactopyranoside) followed by measurements (spectrophotometrically) at 570 nm. The results were expressed as percentage of reduction in parasite growth compared to untreated cells, and EC50 values were calculated. Bz was used as a positive control. To investigate the effect of the compounds against intracellular forms of the Y strain, rat cardiomyoblasts (2D cultures of H9C2) were seeded in 24-well plates and, after 24 h of platting, were infected with bloodstream trypomastigotes (20 parasites per host cell). After 24 h of interaction, the infected cultures were rinsed to remove non-internalized parasites and incubated with 10 µM of the tested compounds. After seven days of treatment, the cultures were fixed, stained with Giemsa, and 200 cells were quantified by light microscopy. The results were expressed as % of reduction in parasite burden. The data results from two independent experiments performed in at least duplicate were obtained.

L929 cells = experiment: Toxicity on L929 cells (AlamarBlue); type: cell-based; settings: Mus musculus, L929, 168 h; seven days of compound incubation; 95% confidence interval in brackets
Description: as §3
L929 cells seeded in sterile 96-well microtiter plates were exposed or not to increasing concentrations (up to 200 µM) of the compounds. After seven days of incubation, the cell growth of treated cultures was compared to untreated control cells (100% cell growth). Cellular viability was assessed through AlamarBlue® (resazurin sodium salt) colorimetric assay, and the results were expressed as % reduction in cell growth/viability compared to untreated control, and an IC50 value determined. For the assays using H9C2 cultures, 25 × 10^3 cells/well were seeded in a 96-well microtiter plates (flat and U bottoms, precoated with agarose 1% for preparing 2- and 3D matrices, respectively) and maintained at 37 °C [48, 54].

[4] = Leishmania mexicana, read-out: Cas9 EC50 (μM), promastigotes, resazurin-based assay, highest concentration 100 µM
[5] = Leishmania mexicana, read-out: Cas9^ΔNT1 EC50 (μM), promastigotes, resazurin-based assay, highest concentration 100 µM
[6] = H9c2, 24 h, read-out: H9C2 IC50 µM
[7] = H9c2, 168 h, read-out: Cardiotoxic profile IC50 (µM) 2D

Structure (SMILES)	EC50 [1, 4] [µM]	EC50 ([1]; read-out: Cas9 EC50, promastigotes, resazurin-based assay, highest concentration 100 µM) [µM]	EC50 [2, 5] [µM]	EC50 ([2]; read-out: Cas9^ΔNT1 EC50, promastigotes, resazurin-based assay, highest concentration 100 µM) [µM]	IC50 (H9C2 2D cultures; [6]) [µM]	IC50 (H9C2 2D cultures; [7]) [µM]	EC50 [3] [µM]	EC90 [3] [µM]	IC50 (L929 cells) [µM]
Nc1ncnc2c1c(-c1ccc(Cl)c(Cl)c1)cn2[C@@H]1O[C@H](CO)C[C@H]1O [FH8513, 7-(3,4-dichlorophenyl)-3′-deoxytubercidin]	~100	> 100	~100	100.5 ± 0.9	268	18.6	0.2	1.61	22.3
Nc1ncnc2c1c(-c1ccc(Cl)c(F)c1)cn2[C@@H]1O[C@H](CO)[C@@H](O)[C@H]1O [FH10714, 7-(3-fluoro,4-chlorophenyl)tubercidin]	> 100		> 100		> 300	41.8	0.47	6.19	55.8
O=C(Cn1ccnc1[N+](=O)[O-])NCc1ccccc1 [Bz, Benznidazole, reference compound]					> 300	> 200	1.97	5.54	> 200
Nc1ncnc2c1c(-c1ccc(F)c(F)c1)cn2[C@@H]1O[C@H](CO)[C@@H](O)[C@H]1O [FH11706, 7-(3,4-Difluorophenyl)tubercidin]	> 100		> 100		> 300	47.7	1.11	> 30	118
